This note sets out measurements from US8980276B2, “Conjugates for the prevention or treatment of nicotine addiction” (Pfizer Inc, priority 2010, dated 2015).

One data set has as its system anti-nicotine antibodies. The data set is described as follows: Competition ELISA to determine specificity of antibodies induced by anti-nicotine vaccines. The class given is binding, mouse. Particulars: plasma of mice immunized with conjugates of examples 1 and 2; inhibitors diluted serially from 20,000 μM.
Data set [1] can be described thus: Dissolution of hapten-spacer conjugate for coupling. The class given is physicochemical. Particulars: at 50 mg per ml. The procedure:
a) The hapten-spacer conjugates were obtained as a yellow oil and stored at 2 to 8° C. until the day of use (for up to one week, longer storage was at −20° C.). […] The result was a yellow-brown suspension or solution.

Description for anti-nicotine antibodies: Competition ELISA to Determine Specificity of Antibodies Induced by Anti-Nicotine Vaccines.

As for `CN1C(=O)CC[C@H]1c1cccnc1` [cotinine], the “inhibition of binding of anti-nicotine antibodies to nicotine-coated ELISA plates by added inhibitor” value (from here on “inhibition”) with anti-nicotine antibodies is on record as “no such effect is observed”.

`c1cnc2cc3c(cc2n1)[C@@H]1CNC[C@H]3C1` [varenicline]: the “inhibition” value with anti-nicotine antibodies was “no such effect is observed”.

Consider `CN1CCCC1c1cccnc1` (stereo not shown) [nicotine], for which the “inhibition” value with anti-nicotine antibodies was “dose-dependent inhibition of binding”.

As for `CN1CCC[C@H]1c1cncc(CCCNC(=O)CCCCCCN)c1` [Preparation 33, 7-amino-N-(3-{5-[(2S)-1-methylpyrrolidin-2-yl]pyridin-3-yl}propyl) heptanamide], the “solubility in deionised water” value in data set [1] is reported as “did not dissolve fully in deionised water”.
